Test systems include A498; CCRF-CEM; EKVX; HCT-116; HCT-15; HL-60; HOP-62; HT-29; K562; KM12; LOX IMVI; NCI-H226; NCI-H460; OVCAR-3; OVCAR-4; SF-539; SK-MEL-5; SNB-19; U-251; M14.
Holding throughout (assay): NCI-60 cell line screen, 48 h

Structures are written as SMILES.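 How tested: cells in 96-well plates exposed to compound for 48 hours at five concentrations. GI50 = concentration required for 50% inhibition of growth.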 Activity calls are given as the source filed them. No stated cut-off is given here; in the data, active = GI50 up to about 1.1 µM and inactive = higher.

Regarding `CC(C)=CCC/C(C)=C/CCC1(C)C=Cc2c(c3ccccc3oc2=O)O1` (configuration not stated), the GI50 was 13.4 µM (inactive) in the test with A498; 38.5 µM (inactive) in the test on CCRF-CEM; 18.5 µM (inactive) in the test with EKVX; 14.8 µM (inactive) with HCT-116; 16 µM in the test on HCT-15; 23.8 µM (inactive) in the test with HL-60. For the same compound, the GI50 is 13.2 µM (inactive) with HOP-62; 18.8 µM (inactive) in the test with HT-29; 23.6 µM (inactive) with K562; 18.5 µM (inactive) with KM12; 18 µM (inactive) in the test with LOX IMVI; 16.1 µM (inactive) in the test on NCI-H226. For the same compound, the GI50 in the test with NCI-H460 is 15.8 µM (inactive); in the test on OVCAR-3 it was 18.1 µM (inactive); in the test on OVCAR-4, 14.5 µM (inactive); in the test on SF-539 it was 16.1 µM (inactive); in the test with SK-MEL-5, 14.7 µM (inactive); in the test on SNB-19 it was 20.5 µM (inactive). Further, the GI50 in the test on U-251 was 15.3 µM (inactive).
In the case of `CNS(=O)(=O)NN(C)S(=O)(=O)c1ccc(F)cc1`, the GI50 in the test with A498 was > 100 µM (inactive); with CCRF-CEM it was > 100 µM (inactive); with EKVX, > 100 µM (inactive); in the test with HCT-116 it was > 100 µM (inactive); with HCT-15, above 100 µM; in the test on HL-60, > 100 µM (inactive). The GI50 in the test on HOP-62 is > 100 µM (inactive); with HT-29, > 100 µM (inactive); in the test with K562, > 100 µM (inactive); in the test with KM12, > 100 µM (inactive); in the test on LOX IMVI it was 90.2 µM (inactive); in the test with M14 it was > 100 µM (inactive). In addition, the GI50 in the test with NCI-H226 was > 100 µM (inactive); with NCI-H460, 40.7 µM (inactive); in the test with OVCAR-3 it was > 100 µM (inactive); in the test with OVCAR-4, > 100 µM (inactive); with SF-539, > 100 µM (inactive); in the test on SK-MEL-5, > 100 µM (inactive). Further, the GI50 in the test with SNB-19 and with U-251 was > 100 µM (inactive) each time.
On to `CCN(CC)/[N+]([O-])=N/OC`, for which the GI50 in the test on A498 is > 100 µM (inactive); in the test on CCRF-CEM it was > 100 µM (inactive); in the test on EKVX, > 100 µM (inactive); in the test with HCT-116 it was > 100 µM (inactive); in the test with HCT-15 it was above 100 µM; in the test on HL-60, > 100 µM (inactive). Besides, the GI50 with HOP-62, with HT-29, in the test on K562, in the test with KM12, with LOX IMVI and with M14 was > 100 µM (inactive) in each case. Besides, the GI50 with NCI-H226, in the test with NCI-H460, in the test with OVCAR-3, with SF-539, in the test on SK-MEL-5 and with SNB-19 was > 100 µM (inactive) each time. In addition, the GI50 in the test with U-251 was > 100 µM (inactive).
`CN(CCCNc1ccc2ncn3c4ccccc4c(=O)c1c23)CCCN1C(=O)c2cccc3cc([N+](=O)[O-])cc(c23)C1=O`: the GI50 in the test on A498 is 1.4 µM (inactive); with CCRF-CEM, 0.0614 µM (active); in the test on EKVX, 0.0561 µM (active); with HCT-116 it was 0.00174 µM (active); in the test with HCT-15, 0.0153 µM; with HL-60 it was 0.0358 µM (active). Moreover, the GI50 is 0.0472 µM (active) in the test with HOP-62; 0.00149 µM (active) in the test with HT-29; 0.0201 µM (active) in the test on K562; 0.0292 µM (active) in the test on KM12; 0.00771 µM (active) with LOX IMVI; 0.0481 µM (active) with M14. Also, the GI50 was 0.00603 µM (active) in the test with NCI-H226; 0.00295 µM (active) in the test on NCI-H460; 1.1 µM (active) in the test on OVCAR-3; 0.131 µM (active) in the test on OVCAR-4; 0.00548 µM (active) with SF-539; 0.01 µM (active) in the test on SK-MEL-5. Further, the GI50 with SNB-19 is 0.0401 µM (active); with U-251 it was 0.00966 µM (active).
As to `CNC1=C(C)C(=O)C2=C(C1=O)C(COC(N)=O)C1(OC)C3NC3CN21` (configuration not stated), the GI50 with A498 was 0.632 µM (active); in the test on CCRF-CEM, 4.19 µM (inactive); in the test with EKVX, 22 µM (inactive); in the test on HCT-116, 0.209 µM (active); with HCT-15, 0.391 µM; with HL-60 it was 2.02 µM (inactive). The GI50 in the test on HOP-62 was 0.092 µM (active); in the test with HT-29, 0.207 µM (active); with K562, 4.07 µM (inactive); with KM12, 0.413 µM (active); with LOX IMVI it was 0.152 µM (active); with M14, 0.22 µM (active). Besides, the GI50 was 0.543 µM (active) in the test on NCI-H226; < 0.01 µM (active) in the test on NCI-H460; 3.36 µM (inactive) with OVCAR-3; 2.95 µM (inactive) in the test with OVCAR-4; 0.183 µM (active) in the test with SF-539; 0.0445 µM (active) in the test on SK-MEL-5. The GI50 in the test with SNB-19 is 0.268 µM (active); in the test with U-251, 0.883 µM (active).
`CC1(C)O[C@@H](C[C@]2(C#N)C[C@H](CCl)OC(C)(C)O2)C[C@@H](C#N)O1`: the GI50 in the test on A498 is > 100 µM (inactive); in the test with CCRF-CEM, > 100 µM (inactive); with EKVX it was > 100 µM (inactive); in the test on HCT-116 it was > 100 µM (inactive); in the test with HCT-15 it was above 100 µM; in the test on HL-60 it was > 100 µM (inactive). In addition, the GI50 with HOP-62, in the test with HT-29, in the test on K562, with KM12, in the test on LOX IMVI and in the test on M14 was > 100 µM (inactive) throughout. Also, the GI50 in the test with NCI-H226, in the test on NCI-H460, in the test with OVCAR-3, in the test with OVCAR-4, in the test on SF-539 and in the test with SK-MEL-5 was > 100 µM (inactive) each time. The GI50 with SNB-19 and with U-251 was > 100 µM (inactive) each time.
For `O=C1Sc2ccccc2/C1=N/Nc1ccccc1[N+](=O)[O-]`, the GI50 in the test on A498 is > 100 µM (inactive); with CCRF-CEM, > 100 µM (inactive); in the test with EKVX it was > 100 µM (inactive); with HCT-116, > 100 µM (inactive); in the test with HCT-15 it was above 100 µM; in the test with HL-60 it was > 100 µM (inactive). In addition, the GI50 in the test with HOP-62, in the test on HT-29, with K562, in the test with KM12, in the test on LOX IMVI and in the test with M14 was > 100 µM (inactive) throughout. Also, the GI50 is > 100 µM (inactive) in the test with NCI-H226; > 100 µM (inactive) in the test with NCI-H460; > 100 µM (inactive) with OVCAR-3; 36.1 µM (inactive) in the test on OVCAR-4; 69.5 µM (inactive) in the test on SF-539; 65.2 µM (inactive) in the test with SK-MEL-5. The GI50 in the test with SNB-19 and with U-251 was > 100 µM (inactive) in each case.
`O=C1C(=O)c2ccccc2C=C1[N+](=O)[O-]`: the GI50 in the test on A498 was > 100 µM (inactive); in the test on CCRF-CEM, 27.9 µM (inactive); in the test with EKVX, 19.3 µM (inactive); with HCT-116, 26.2 µM (inactive); in the test on HCT-15, 32.7 µM; in the test on HL-60 it was 22.7 µM (inactive). Moreover, the GI50 is > 100 µM (inactive) in the test on HOP-62; > 100 µM (inactive) with HT-29; 53.5 µM (inactive) in the test on K562; 70.3 µM (inactive) in the test on KM12; 25.8 µM (inactive) in the test on LOX IMVI; 71.1 µM (inactive) in the test on M14. Also, the GI50 with NCI-H226 is > 100 µM (inactive); in the test with NCI-H460, 30.2 µM (inactive); in the test with OVCAR-3, 23.4 µM (inactive); in the test with OVCAR-4, 31.3 µM (inactive); in the test on SF-539, 43.1 µM (inactive); in the test on SK-MEL-5 it was 17 µM (inactive). Moreover, the values for the GI50 with SNB-19 and in the test on U-251 were > 100 µM (inactive) and 40.1 µM (inactive), respectively.
In the case of `C=C1C[C@@H]2C[C@@H](C)CC(O)[C@]2(CCCN)C1O` (some centres not stated), the GI50 in the test with A498, with CCRF-CEM, in the test with EKVX, in the test with HCT-116, with HL-60 and with HOP-62 was > 100 µM (inactive) each time. The GI50 with HT-29, in the test with K562, in the test on KM12, with LOX IMVI, in the test on M14 and with NCI-H226 was > 100 µM (inactive) in each case. Also, the GI50 with NCI-H460, with OVCAR-3, in the test on OVCAR-4, in the test with SF-539, in the test on SK-MEL-5 and in the test on SNB-19 was > 100 µM (inactive) in each case. Besides, the GI50 with U-251 is > 100 µM (inactive).

These data come from ChEMBL document CHEMBL1201862, “PubChem BioAssay data set” (2004).
